Series [1] deals with Bak−/− and DKO A549 cells. The experiment in a line: apoptotic cell death in Bak knockout cells. In kind it is cell-based, human. The source says: Bak is a pro-apoptotic protein required for programmed cell death and apoptosis induction in cancer cells. […] Experiments indicate that BKA-073 directly binds to Bak protein and induces Bak oligomerization in mitochondria leading to activation of a proapoptotic function. Experiments indicate that BKA-073-induced Bak oligomerization promotes mitochondrial priming and Cyt c release, which are early changes in net pro-apoptotic signaling at the mitochondria. BKA-073-induced mitochondrial priming and Cyt c release leads to apoptotic cell death of lung cancer cells.
Several Bax/Bak-independent mechanisms of apoptotic cell death have been described. […] It is contemplated that, in addition to the major Bak-dependent apoptosis mechanism, BKA-073 induces a small proportion of apoptotic cell death (about 20%) through Bax/Bak-independent mechanism(s).

Series [2] deals with A549 lung cancer xenografts. The series is described as follows: A549 lung cancer xenografts. Format: in vivo. As to the method:
Nu/Nu mice bearing A549 lung cancer xenografts were treated with increasing doses of BKA-073 (5 to 15 mg/kg/d) i.p. for 28 days. Tumor volume was measured once every 2 days. After treatment, mice were sacrificed, and tumors were removed and analyzed.
To test the potency of BKA-073 in vivo, mice carrying lung cancer xenografts derived from A549 cells were treated i.p. with increasing doses (0, 5, 10, 15 mg/kg/d) of BKA-073 for 28 days. […] To assess whether BKA-073 induced suppression of tumor growth occurs through activation of Bak and apoptosis in vivo, representative samples from harvested tumor tissues were analyzed by cross-linking with BMH for Bak oligomerization or by immunohistochemistry (IHC) for active caspase 3. […] Doses between 5 mg/kg and 15 mg/kg provide an optimal therapeutic index for BKA-073 for in vivo experimentation involving lung cancer xenografts.

The test system of series [3] is KRAS G12D LKB1fl/fl (KL) mice. The series is described as follows: mutant KRAS-driven lung cancer GEMM. Conditions: 15 mg/kg/d i.p., control 4 of 6, p<0.01. In kind it is in vivo. As to the method:
After administration of adenovirus Cre recombinase in KRAS G12D LKB1fl/fl (KL) mice for 6 weeks, KL mice were treated with KRA-073 (15 mg/kg/d) i.p. for 48 days (n=6 mice/group). Survival of mice is shown for up to 48 days before euthanization in the control group versus the BKA-073 treatment group.
To assess the potency of BKA-073 in KRAS mutant driven lung cancer, lox-stop-lox (LSL)-KRAS G12D LKB1fl/fl (i.e. KL) mice were generated and bred. These mice contain a KRAS G12D LSL knock-in allele and a floxed allele of LKB1 (LKB1fl/fl). Primary lung adenocarcinoma was detectable as early as 6 weeks after intranasal administration of 5×10^6 pfu adenovirus expressing Cre recombinase (AdeCre) in KRAS G12D LKB1fl/fl (KL) mice.
To further assess the potential of BKA-073 as therapy for mutant KRAS-driven lung cancer, BKA-073 (15 mg/kg/d) or vehicle was administered to KL mice i.p. starting at 6 weeks post AdeCre delivery. […] To quantify tumor burden and tumor multiplicity in mice, H&E-stained lungs were imaged with morphometric software to quantify the surface area composed of tumor as opposed to normal tissue compared with the control group. There were 4 deaths out of 6 mice in the control group versus 2 deaths out of 6 mice in the BKA-073 treatment group (p<0.01), calculated up to 48 days before euthanization (FIG. 5).

Here are results for one compound from patent publication US20240342157A1, “BAK ACTIVATORS, PHARMACEUTICAL COMPOSITIONS, AND USES IN TREATING CANCER” (Emory University, priority 2021, published 2024).

For `COc1ccc2nc3ccccc3c(NCCNCC(C)O)c2c1` (stereo not shown) [BKA-073, 1-((2-((2-methoxyacridin-9-yl)amino)ethyl)amino)propan-2-ol], the apoptotic cell death entry in series [1] is on record as “about 20%”. Moreover, in series [2] (5 to 15 mg/kg/d), the tolerability result is “well tolerated without significant toxicity”. Also, the “weight loss and organ toxicities” value in series [2] (dose range between 5 and 15 mg/kg/day) is reported as “without weight loss or significant organ toxicities”. Further, in series [3], the “deaths up to 48 days” value is reported as 2 deaths out of 6 mice.
